The values below come from ChEMBL document CHEMBL1781907, “Expeditious synthesis and biological evaluation of novel 2,N6-disubstituted 1,2-dihydro-1,3,5-triazine-4,6-diamines as potential antimalarials” (Eur J Med Chem, 2011).

For series [1], the system named is Plasmodium falciparum. The experiment in a line: Antimalarial activity against chloroquine and cycloguanil-resistant Plasmodium falciparum FCR-3/Gambia ring stage infected in human red blood cells assessed as inhibition of [3H]-hypoxanthine incorporation incubated 24 hrs before addition of [3H]-hypoxanthine measured after 24 hrs. The class given is functional, cell-based.

Series [2] is described as follows: Toxicity at human RBC assessed as haemolysis at 50 uM. The class given is cell-based. The settings on record: erythrocyte.
Series [3] relates to Plasmodium falciparum. The experiment in a line: Ratio of cycloguanil IC50 to compound IC50 for chloroquine and cycloguanil-resistant Plasmodium falciparum FCR-3/Gambia. It counts as functional.

The term IC50 denotes the concentration that gives 50% inhibition. Turning to `Cl.NC1=NC(c2ccccc2Cl)NC(NCCCOc2ccc(Cl)cc2)=N1` (stereo unspecified), in the series with Plasmodium falciparum [1], the concentration for half-maximal inhibition (IC50) came to 6.66 µM. In series [2], the Activity result is “Non-toxic”.

With `Cl.NC1=NC(c2ccccc2)NC(NCCCOc2ccccc2F)=N1` (stereo unspecified), in the series with Plasmodium falciparum [1], the IC50 came to 10.8 µM. For the same compound, in series [2], the Activity result was “Non-toxic”.

As to `COc1ccc(C2N=C(N)N=C(NCCCOc3ccc(Cl)cc3)N2)cc1.Cl` (stereo unspecified), the 50% inhibitory concentration (IC50) in the series with Plasmodium falciparum [1] is 6.66 µM. The Activity result in series [2] was “Non-toxic”.

As for `Cl.NC1=NC(c2ccccc2)NC(NCCCSc2ccc(Cl)cc2)=N1` (stereo unspecified), the IC50 in the series with Plasmodium falciparum [1] was 1.3 µM. The Activity result in series [2] is “Non-toxic”. The “Ratio IC50” value in the series with Plasmodium falciparum [3] was determined as 5.

For the compound `CC1(C)N=C(N)N=C(NCc2ccccc2)N1.Cl`, the IC50 in the series with Plasmodium falciparum [1] worked out at 49.8 µM. For the same compound, in series [2], the Activity entry is recorded as “Non-toxic”.

With `Cl.NC1=NC(c2ccco2)NC(NCCCOc2ccc(Cl)cc2)=N1` (stereo unspecified), the IC50 with Plasmodium falciparum [1] was 0.99 µM. The Activity result in series [2] is recorded as “Non-toxic”. Moreover, the “Ratio IC50” value in the series on Plasmodium falciparum [3] was found to be 5.

For `COc1ccc(OCCCNC2=NC(N)=NC(c3ccccc3)N2)cc1.Cl` (stereo unspecified), in the series with Plasmodium falciparum [1], the IC50 worked out at 12.3 µM. Further, the Activity result in series [2] is listed as “Non-toxic”.

For the compound `Cl.NC1=NC(c2ccc(F)cc2)NC(NCCCOc2ccc(Cl)cc2)=N1` (stereo unspecified), the IC50 with Plasmodium falciparum [1] amounted to 6.21 µM. Further, in series [2], the Activity entry was “Non-toxic”.

As to `Cl.NC1=NC2(CCCCC2)NC(NCc2ccccc2)=N1`, the IC50 with Plasmodium falciparum [1] stood at 9.89 µM. Moreover, the Activity entry in series [2] is “Non-toxic”.

As to `Cl.NC1=NC(c2ccc([N+](=O)[O-])cc2)NC(NCCCOc2ccc(Cl)cc2)=N1` (stereo unspecified), the concentration for half-maximal inhibition (IC50) with Plasmodium falciparum [1] worked out at 7.39 µM. The Activity result in series [2] was “Non-toxic”.

As for `Cl.NC1=NC(c2ccccc2)NC(NCCCOc2c(Cl)cc(Cl)cc2Cl)=N1` (stereo unspecified), in the series on Plasmodium falciparum [1], the IC50 is 4.32 µM. Besides, in series [2], the Activity entry is “Non-toxic”.

For `Cl.NC1=NC(c2ccccc2)NC(NCCCOc2ccc(Cl)cc2Cl)=N1` (stereo unspecified), the IC50 in the series on Plasmodium falciparum [1] stood at 4.52 µM. Besides, in series [2], the Activity result is recorded as “Non-toxic”.

Consider `CC1(C)N=C(N)N=C(NCCc2ccc(Cl)cc2)N1.Cl`, for which the 50% inhibitory concentration (IC50) with Plasmodium falciparum [1] was 16.6 µM. In series [2], the Activity entry is listed as “Non-toxic”.

As for `Cl.NC1=NC(c2ccccc2)NC(NCCCOc2ccc(Cl)cc2)=N1` (stereo unspecified), in the series with Plasmodium falciparum [1], the concentration for half-maximal inhibition (IC50) is 7.11 µM. The Activity entry in series [2] was “Non-toxic”.

In the case of `CC1(C)N=C(N)N=C(NCCCSc2ccc(Cl)cc2)N1.Cl`, the IC50 in the series on Plasmodium falciparum [1] is 7.84 µM. The Activity result in series [2] is given as “Non-toxic”.

With `Cl.NC1=NC(c2ccc(F)cc2)NC(NCCc2ccc(Cl)c(Cl)c2)=N1` (stereo unspecified), the IC50 with Plasmodium falciparum [1] is 8.41 µM. The Activity entry in series [2] is reported as “Non-toxic”.

For `Cl.NC1=NC2(CCCCC2)NC(NCCCOc2ccc(Cl)cc2)=N1`, the IC50 in the series with Plasmodium falciparum [1] was determined as 7.94 µM. Further, in series [2], the Activity entry is reported as “Non-toxic”.

As for `Cl.NC1=NC(C2CCCCC2)NC(NCCCOc2ccc(Cl)cc2)=N1` (stereo unspecified), the concentration for half-maximal inhibition (IC50) in the series on Plasmodium falciparum [1] was determined as 4.59 µM. The Activity result in series [2] is “Non-toxic”.

`Cl.NC1=NC(c2ccccc2)NC(NCCCCOc2ccc(Cl)cc2)=N1` (stereo unspecified): the IC50 with Plasmodium falciparum [1] was determined as 2.71 µM. Besides, the Activity entry in series [2] is “Non-toxic”. In the series with Plasmodium falciparum [3], the “Ratio IC50” value is listed as 5.

Regarding `CC1(C)N=C(N)N=C(N)N1c1ccc(Cl)cc1` [CYCLOGUANIL], the half-inhibitory concentration (IC50) in the series on Plasmodium falciparum [1] was determined as 5 µM.

With `CC1(C)N=C(N)N=C(NCCCOc2ccc(Cl)cc2)N1.Cl`, in the series with Plasmodium falciparum [1], the 50% inhibitory concentration (IC50) came to 11.3 µM. The Activity entry in series [2] was “Non-toxic”.

`Cl.NC1=NC(c2ccccc2)NC(NCCCOc2ccc(Cl)c(Cl)c2)=N1` (stereo unspecified): the concentration for half-maximal inhibition (IC50) in the series on Plasmodium falciparum [1] worked out at 6.73 µM. Further, the Activity entry in series [2] is given as “Non-toxic”.

`Cl.NC1=NC(c2ccccc2)NC(NCCCCCOc2ccc(Cl)cc2)=N1` (stereo unspecified): the IC50 in the series with Plasmodium falciparum [1] is 1.36 µM. Also, the Activity result in series [2] is recorded as “Non-toxic”. Further, the “Ratio IC50” value with Plasmodium falciparum [3] came to 5.

Consider `Cl.NC1=NC(c2ccccc2)NC(NCCCOc2ccccc2Cl)=N1` (stereo unspecified), for which, in the series on Plasmodium falciparum [1], the IC50 came to 4.53 µM. Also, the Activity result in series [2] is reported as “Non-toxic”.

Take `CN(C)c1ccc(C2N=C(N)N=C(NCCCOc3ccc(Cl)cc3)N2)cc1.Cl` (stereo unspecified): in the series with Plasmodium falciparum [1], the IC50 turned out to be 44.8 µM. In series [2], the Activity entry is given as “Non-toxic”.

As to `Cl.NC1=NC(c2ccc([N+](=O)[O-])cc2)NC(NCCc2ccc(Cl)c(Cl)c2)=N1` (stereo unspecified), the half-inhibitory concentration (IC50) with Plasmodium falciparum [1] was determined as 11.1 µM. Besides, in series [2], the Activity entry was “Non-toxic”.

For `CC1(C)N=C(N)N=C(NCCCCOc2ccc(Cl)cc2)N1.Cl`, the IC50 in the series with Plasmodium falciparum [1] came out at 7.2 µM. In addition, the Activity result in series [2] is reported as “Non-toxic”.

As to `Cl.NC1=NC(c2ccc(C(F)(F)F)cc2)NC(NCCCOc2ccc(Cl)cc2)=N1` (stereo unspecified), in the series with Plasmodium falciparum [1], the half-maximal inhibitory concentration (IC50) came out at 5.54 µM. The Activity result in series [2] is “Non-toxic”.

For `Cl.NC1=NC(c2ccccc2)NC(NCCCOc2ccc([N+](=O)[O-])cc2)=N1` (stereo unspecified), the half-inhibitory concentration (IC50) with Plasmodium falciparum [1] is 3.87 µM. Further, the Activity result in series [2] was “Non-toxic”.
